According to paper PMC8619673 (Cells, 2021):

How the values were obtained:
[1] = molecular target: T1, Aβ42 peptide (Homo sapiens, UniProt P05067); test: Thioflavin T aggregation assay; format: biochemical
T1 construct: Aβ42 peptide (10 μM; Kelowna Int’l Scientific Inc., New Taipei City, Taiwan); purchased Kelowna Int’l Scientific Inc., New Taipei City, Taiwan
Experimental: To form Aβ aggregation, Aβ42 peptide (10 μM; Kelowna Int’l Scientific Inc., New Taipei City, Taiwan) was incubated with tested compounds (5–20 μM) in 150 mM NaCl and 20 mM Tris-HCl (pH8.0) at 37 °C for 48 h. Thioflavin T (10 μM; Sigma-Aldrich) was added to the Aβ mixture and incubated at room temperature for 5 min. The fluorescence intensity was recorded at 420 nm excitation and 485 nm emission by an FLx800 microplate reader (Bio-Tek, Winooski, VT, USA). Half maximal effective concentration (EC50) was estimated by a method of interpolation.

[2] = test system: Aβ-GFP SH-SY5Y cells; test: Neurite outgrowth analysis; format: cell-based, Human; details: 5 µM; for Neurite total length: induced untreated 23.9, uninduced 31.2; for Neurite length: untreated 25.3
Experimental: Aβ-GFP SH-SY5Y cells (6 × 10^4 cells) were seeded on a 24-well plate with retinoic acid (10 µM) on day 1. Tested coumarins (5 µM) and doxycycline (5 μg/mL) were added on day 2, as described. On day 8, the cells were washed with phosphate-buffered saline (PBS) twice and fixed in 4% paraformaldehyde at 4 °C for 15 min. Cells were permeabilized with Triton X-100 (0.1%) for 10 min, blocked with bovine serum albumin (3%) for 20 min, and stained with anti-neuronal TUBB3 antibody (1:1000; Covance, Princeton, NJ, USA) at 4 °C overnight. The next day, cells were washed with PBS twice and stained by a secondary donkey anti-rabbit Alexa Fluor® 555 antibody (1:1000; Thermo Fisher Scientific) and 4′,6-diamidino-2-phenylindole (DAPI; 0.1 µg/mL; Sigma-Aldrich) at room temperature for 1 h. Neuronal images from at least 60 individual fields (150–250 neurons per field) per experiment were captured at excitation 531/40 nm and emission 593/40 nm wavelengths using an ImageXpress micro confocal high-content imaging system (Molecular Devices). Neurite total length (μm) and numbers of process (the number of primary neurites originated from the cell body of a neuron) and branch (the number of secondary neurites extended from primary neurites) were analyzed using a MetaXpress neurite outgrowth application module (Molecular Devices). For each sample, around 6000 cells were analyzed in each of three independent experiments.
Lentiviral short hairpin RNA (shRNA) targeting TRKB (TRCN0000002243, TRCN0000002245, and TRCN0000002246) and a negative-scrambled control (TRC2.Void) were obtained from the National RNAi Core Facility, IMB/GRC, Academia Sinica (Taipei, Taiwan). As described, cells were plated on 6- or 24-well plates, with retinoic acid added on day 1. Cells were infected with lentivirus (multiplicity of infection, 3 for each shRNA), with polybrene (8 µg/mL; Sigma-Aldrich) on the next day. Cells were pretreated with tested compounds (5 µM) for 8 h after changing medium, followed by doxycycline on day 3. Cells were collected for further analysis on day 9. The hairpin sequences of targeting shRNA were below: • TRCN0000002243: 5’-[…]ctcgag[…]-3’ • TRCN0000002245: 5’-[…]ctcgagATGTT-[…]-3’ • TRCN0000002246: 5’-[…]ctcgag[…]-3’ • TRC2.Void: 5’-[…]ctcgag[…]-3’

[3] = test system: AKT; test: Western blot, p-AKT; format: cell-based, Human; details: 5 µM; induced untreated 81%
Experimental: (§1) Cellular proteins were prepared using a lysis buffer containing NaCl (150 mM), ethylene diamine tetraacetic acid (EDTA, 1 mM, pH8.0), Tris-HCl (50 mM, pH8.0), ethylene glycol tetraacetic acid (EGTA, 1 mM, pH8.0), sodium dodecyl sulfate (SDS, 0.1%), sodium deoxycholate (SD, 0.5%), Triton X-100 (1%), and protease (Sigma-Aldrich), and phosphatase (Abcam, Cambridge, MA, USA) inhibitor cocktails. After quantitation by protein assay kit (Bio-Rad, Hercules, CA, USA), 20 µg proteins were separated by SDS-polyacrylamide (10%) gel electrophoresis and transferred to polyvinylidene difluoride (PVDF) membranes (Sigma-Aldrich) using a Mini Trans-Blot cell (Bio-Rad). After blocking, the membrane was probed with anti-TRKB, anti-p-TRKB (Y516), anti-p-TRKB (Y817) (1:500; Cell Signaling, Danvers, MA, USA), anti-ERK, anti-p-ERK (T202/Y204) (1:1000; Cell Signaling), anti-AKT, anti-p-AKT (S473) (1:1000; Cell Signaling), anti-CREB, anti-p-CREB (S133) (1:1000; Millipore, Billerica, MA, USA), anti-BDNF, anti-BCL2 (1:500; Santa Cruz Biotechnology, Santa Cruz, CA, USA), anti-BAX (1:1000; Cell Signaling), anti-β-tubulin (1:500; Sigma-Aldrich), or anti-GAPDH (1:1000, MDBio, Taipei, Taiwan) antibody. The immune complexes were detected using goat anti-mouse or goat anti-rabbit IgG antibody conjugated with horseradish peroxidase (1:5000; GeneTex, Irvine, CA, USA) and chemiluminescent substrate (Millipore).

[4] = test system: ERK; test: Western blot, p-ERK; format: cell-based, Human; details: 5 µM; induced untreated 79%
Experimental: as §1

[5] = test system: CREB; test: Western blot, p-CREB; format: cell-based, Human; details: 5 µM; induced untreated 81%
Experimental: as §1

[6] = test system: BAX; test: Western blot, BAX; format: cell-based, Human; details: 5 µM; induced untreated 182%
Experimental: as §1

[7] = in vitro; details: PAMPA
Experimental: PAMPA was used to predict the penetration of the tested compounds across the BBB. […] The filter PVDF membrane (pore size 0.45 μm; Millipore) was coated with 4 μL of porcine polar brain lipid (20 mg/mL; Avanti Polar Lipids, Alabaster, AL, USA) in dodecane and the acceptor well filled with 200 μL of 5% DMSO in PBS. The filter plate was carefully placed on the donor plate to form a sandwich plate at room temperature for 18 h. After the permeation time, the filter and donor plates were separated. The concentration of the tested compound in the donor and acceptor wells was measured by an AB Sciex QTrap 5500 mass spectrometer (Applied Biosystems) linked to a 1200 HPLC system (Agilent Technologies, Palo Alto, CA, USA). The concentrations of the QC compounds were determined by a Tecan Infinite M200 Pro microplate reader (Switzerland). The effective permeability coefficient (Pe) was calculated as described. Each compound was tested in triplicate.

[8] = 1,1-diphenyl-2-picrylhydrazyl radical scavenging; details: data not shown
[9] = TRKB shRNA-infected cells, untreated 2.9
[10] = induced untreated 1.8, uninduced 2.8
[11] = induced untreated 3.3, uninduced 4.4
[12] = scrambled shRNA-infected cells, untreated 2.4
[13] = scrambled shRNA-infected cells, untreated 3.5
[14] = BBB Permeability Classification
[15] = Measured Pe (effective permeability)

T1 sequence (P05067 672-713 limits assumed): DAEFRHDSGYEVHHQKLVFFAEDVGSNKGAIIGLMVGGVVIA

Compound | Aβ aggregation inhibition (in words) ([1]; compound 20 μM, thioflavin T assay) | Neurite process number [2, 9] | Neurite branch number [2, 10] | Neurite process number [2, 11] | Neurite total length [2] | Neurite branch number [2, 12] | Neurite process number [2, 13] | Neurite length ([2]; scrambled shRNA-infected cells) | p-AKT (S473) protein level relative to uninduced cells (100%) [3] | p-ERK (T202/Y204) protein level relative to uninduced cells (100%) [4] | p-CREB (S133) protein level relative to uninduced cells (100%) [5] | BAX protein level relative to uninduced cells (100%) [6] [%] | Papp at 18 h, 1 μM [7, 14] [×10⁻⁶ cm/s] | Papp at 18 h, 1 μM [7, 15] [×10⁻⁶ cm/s] | 1,1-diphenyl-2-picrylhydrazyl radical scavenging activity [8] | Thioflavin T fluorescence (Aβ aggregation) ([1]; compound 20 µM, Aβ42 10 μM, 37 °C 2 days, 621 AU without compound, 151 AU without incubation) [AU]
CCOC(=O)c1cc2c(O)cccc2oc1=O [ZN014, ethyl 5-hydroxy-2-oxo-2H-chromene-3-carboxylate] | did not inhibit Aβ aggregation | 3.5 | 2.4–2.5 | 4.2–4.3 | 29.1–29.3 μm | 3.0–3.1 | 3.9–4.0 | 30.7–30.9 µm | 91–110% | 95–107% | 98–101% | 126 | < 2 | 0.56 ± 0.01 | no 1,1-diphenyl-2-picrylhydrazyl radical scavenging activity | 
O=C(/C=C/c1ccccc1O)c1c(O)c2ccccc2oc1=O [ZN015, (E)-4-hydroxy-3-(3-(2-hydroxyphenyl)acryloyl)-2H-chromen-2-one] |  | 3.5 | 2.4–2.5 | 4.2–4.3 | 29.1–29.3 μm | 3.0–3.1 | 3.9–4.0 | 30.7–30.9 µm | 91–110% | 95–107% | 98–101% | 126 | > 4 | 5.16 ± 0.11 | no 1,1-diphenyl-2-picrylhydrazyl radical scavenging activity | 403
